Laboratory results as given in patent US3998843A (priority 1972, dated 1976).

Legend:
acetylcholinesterase [1] = biological target: T1, acetylcholinesterase (Homo sapiens, UniProt P22303); test: In vitro anticholinesterase activity, Michel method (acetylcholine substrate, washed human red cells as enzyme source); type: biochemical
T1 construct: washed human red cells as the source of acetylcholinesterase; from tissue; host or cells: washed human red cells
Method: Screening for anticholinesterase activity was carried out in vitro by the Michel method (J. Lab. Clin. Med 34, 1564, (1949)) using acetylcholine as substrate, washed human red cells as the source of acetylcholinesterase.

[2] = tested on: neuromuscular effects of tubocurarine; test: Reversal of tubocurarine neuromuscular effects in man (human volunteers; anterior compartment leg muscle twitch); type: in vivo; conditions: for recovery from tubocurarine block: I.V. in saline, 0.6 to 0.8 mg methobromide or 2.5 mg neostigmine (after 1.2 mg atropine)
Method: Substantiation for some of these estimates has come from the results of tests carried out in human volunteers. In these experiments contractions of the anterior compartment leg muscles were induced by supramaximal stimulation of the lateral popliteal nerve. After recording a period of control activity, tubocurarine was administered as a slow I.V. infusion until the muscle twitch height was reduced to approximately 50% of control levels. Three minutes later the anticholinesterase was administered (I.V. in saline) and the twitch height monitored until control levels were re-attained.

[3] = tested on: constriction of the pupil in the eye of the mouse; test: Mouse miosis test of Schneider; type: in vivo; conditions: for Potency, Mouse Miosis: SC, relative to neostigmine (1.0); for in vivo potency versus neostigmine: mouse miosis, in words
Method: (§1) In vivo testing was carried out employing the mouse miosis test of Schneider R, J. Pharm. Pharmacol. 22, 298 (1970) in which antiacetylcholinesterases induce constriction of the pupil in the eye of the mouse, and the rat chromodacryorrhoea test of Burgen A.S.V.Brit.J.Pharmacol. 4; 185 (1949) in which antiacetylcholinesterases potentiate the ability of acetylcholine to provoke red tears in rats. Both tests enable the potency and duration of action of antiacetylcholinesterases to be assessed.

[4] = tested on: ability of acetylcholine to provoke red tears in rats; test: Rat chromodacryorrhoea test of Burgen; type: in vivo; conditions: for Potency, Rat chromod.: IP, relative to neostigmine (1.0); for in vivo potency versus neostigmine: rat chromodacryorrhoea, in words
Method: as §1

[5] = biological target: T2, bovine erythrocyte acetylcholinesterase (Bos taurus, UniProt P23795); test: In vitro anticholinesterase test, method of Ellmann (acetylthiocholine substrate, Lineweaver-Burk, Ki); type: biochemical; conditions: for Ki: acetylthiocholine substrate, bovine erythrocyte acetylcholinesterase, competitive conditions; for antiacetylcholinesterase potency versus neostigmine: from Ki, in words
T2 construct: bovine erythrocyte acetylcholinesterase as enzyme; from tissue; host or cells: bovine erythrocytes
T2 sequence (P23795 other isoform, or with tags, fused parts or gaps): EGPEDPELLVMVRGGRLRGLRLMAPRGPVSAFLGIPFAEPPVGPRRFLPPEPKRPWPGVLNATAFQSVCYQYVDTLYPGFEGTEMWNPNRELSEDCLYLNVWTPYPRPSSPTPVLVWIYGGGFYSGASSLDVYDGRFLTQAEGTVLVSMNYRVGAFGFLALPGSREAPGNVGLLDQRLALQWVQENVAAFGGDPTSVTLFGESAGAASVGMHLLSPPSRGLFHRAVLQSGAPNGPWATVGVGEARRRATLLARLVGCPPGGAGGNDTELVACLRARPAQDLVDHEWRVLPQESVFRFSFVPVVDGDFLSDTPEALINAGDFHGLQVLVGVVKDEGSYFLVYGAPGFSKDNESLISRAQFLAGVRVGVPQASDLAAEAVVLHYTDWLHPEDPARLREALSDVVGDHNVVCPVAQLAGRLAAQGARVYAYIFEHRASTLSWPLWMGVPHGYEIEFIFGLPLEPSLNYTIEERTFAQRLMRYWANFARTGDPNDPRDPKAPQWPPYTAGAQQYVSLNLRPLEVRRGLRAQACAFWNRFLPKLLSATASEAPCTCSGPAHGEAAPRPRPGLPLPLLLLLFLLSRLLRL
Method: In vitro testing of compounds was carried out by the method of Ellmann, Biochem. Pharmacol. 7, 88 (1961) with acetylthiocholine as substrate and bovine erythrocyte acetylcholinesterase as enzyme. Reaction rates were determined with and without inhibitor under competitive conditions (i.e. the substrate was added before the inhibitor). Results were plotted by the Lineweaver-Burk method and these plots were used to determine inhibitor constants (Ki values).

[6] = tested on: tubocurarine-induced muscle blockade; test: Reversal of tubocurarine-induced muscle blockade in cats (anterior tibialis twitch); type: in vivo; conditions: Felis catus, iv; Cat; injected into the femoral vein; read-out: Dose necessary to produce maximum anti-curare effect
Source text: (§2) D-Tubocurarine is used clinically to produce relaxation of skeletal muscles in patients undergoing certain surgical procedures. Following the completion of surgery antiacetylcholinesterases are used to reverse this relaxation. Experiments have been carried out to measure the ability of the compounds of the invention to reverse tubocurarine-induced muscle blockade in rats and cats.
(§3) The method was based on that of Zaimis E, J. Physiol 122, 238 (1953) in which animals were anaesthetised and the left hind limb clamped ridigly in a horizontal position with the tendon of the anterior tibialis muscle attached to a flat spring myograph. Twitches of the anterior tibialis muscle were induced by supramaximal electrical stimulation of the tibial nerve and recorded on a strip recorder. Drugs dissolved in 0.9% saline were injected into the femoral vein. During an experiment the dose of tubocurarine necessary to establish a partial (80 to 90%) blockade of neuromuscular transmission was established an anticholinisterase drugs were subsequently injected at the time of maximum blockade. Recovery achieved after the administration of an antiacetylcholinesterase was compared with the recovery after tubocurarine alone.

[7] = tested on: tubocurarine-induced muscle blockade; test: Reversal of tubocurarine-induced muscle blockade in rats (anterior tibialis twitch); type: in vivo; conditions: iv; Rat; injected into the femoral vein; read-out: Dose necessary to produce maximum anti-curare effect
Source text: as §2, §3

[8] = Intravenous LD50 in rats and therapeutic ratio; type: in vivo, rat; conditions: for margin of safety when used in man: expected from the rat therapeutic ratios; for selectivity ratio / LD50: rat, in vivo, rats; for selectivity ratio: iv, ratio of LD50 to the dose giving maximum tubocurarine reversal; for LD50: intravenous
Source text: The intravenous LD50 has been determined in rats for the three above mentioned drugs and from the results obtained the therapeutic ratios (defined as the ratio of LD50 to the dose giving maximum tubocurarine reversal) have been calculated: […]

muscarinic activity = test: Muscarinic activity in animal experimentation; type: in vivo
[9] = tested on: neuromuscular effects of tubocurarine; conditions: in the clinic; cited from earlier work
acetylcholinesterase [10] = conditions: after dosage; as thought by some workers; cited from earlier work

T1 sequence (P22303 other isoform, or with tags, fused parts or gaps): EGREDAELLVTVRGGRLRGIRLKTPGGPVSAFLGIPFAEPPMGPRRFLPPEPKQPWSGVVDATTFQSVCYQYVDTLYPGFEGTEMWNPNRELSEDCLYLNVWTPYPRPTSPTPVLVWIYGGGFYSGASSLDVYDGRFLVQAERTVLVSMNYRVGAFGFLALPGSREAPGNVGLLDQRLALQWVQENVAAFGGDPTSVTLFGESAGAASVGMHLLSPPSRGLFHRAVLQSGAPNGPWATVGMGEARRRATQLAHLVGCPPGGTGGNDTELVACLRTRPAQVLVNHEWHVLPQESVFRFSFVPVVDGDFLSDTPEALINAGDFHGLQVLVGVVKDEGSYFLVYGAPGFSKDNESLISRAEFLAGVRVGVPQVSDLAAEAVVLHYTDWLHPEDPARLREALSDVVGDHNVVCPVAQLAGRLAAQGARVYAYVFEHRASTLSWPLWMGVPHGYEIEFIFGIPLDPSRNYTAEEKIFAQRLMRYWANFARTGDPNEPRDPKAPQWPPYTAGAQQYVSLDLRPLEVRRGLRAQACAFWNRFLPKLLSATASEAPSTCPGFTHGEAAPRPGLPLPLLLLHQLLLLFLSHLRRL

C[N+]1([C@@H]2CCCC[C@@H]2c2cccc(O)c2)CCCC1 (stereo in doubt) [Example 2, cis-2-(3-Hydroxyphenyl)-1-pyrrolidinocyclohexane Methobromide]
IC50 (acetylcholinesterase [1]): 20 nM
incidence of muscarinic effects ([2]; 0.6 to 0.8 mg I.V. versus 2.5 mg neostigmine with 1.2 mg atropine): less than that produced by the neostigmine/atropine combination
recovery from tubocurarine block [2]: Prompt recovery

CC[N+](C)(C)c1cccc(O)c1 [Edrophonium, reference compound]
Potency, Mouse Miosis [3]: 0.04
Potency, Rat chromod. [4]: 0.09

Cc1cccc([C@H]2CCCC[C@H]2[N+]2(C)CCCC2)c1 (relative stereo) [Example 8]
IC50 (acetylcholinesterase [1]): 6000 nM

C[N+]1([C@@H]2CCCC[C@@H]2c2ccc(Cl)cc2)CCCC1 (relative stereo) [Example 10]
IC50 (acetylcholinesterase [1]): 200 nM

C[N+]1([C@@H]2CCCC[C@@H]2c2ccccc2)CCCC1 (relative stereo) [Example 1, cis-2-Phenyl-1-pyrrolidinocyclohexane Methiodide]
IC50 (acetylcholinesterase [1]): 200 nM
Ki [5]: 7.7 nM
antiacetylcholinesterase potency versus neostigmine [5]: more potent than neostigmine
ED (maximum effect) [6]: 0.1 mg/kg
ED (maximum effect) [7]: 0.1 mg/kg
margin of safety when used in man [8]: wide margin of safety
selectivity ratio [8]: 7.2
LD50 [8]: 1.5 mg/kg
Potency, Mouse Miosis [3]: 1.6
in vivo potency versus neostigmine [3]: more potent than neostigmine
Potency, Rat chromod. [4]: 2.0
in vivo potency versus neostigmine [4]: more potent than neostigmine
muscarinic activity (muscarinic activity): less muscarinic activity

CCCC(=O)Oc1cccc([C@@H]2CCCC[C@@H]2[N+]2(C)CCCC2)c1 (relative stereo) [Example 5, cis-2-(3-Butyryloxyphenyl)-1-pyrrolidinocyclohexane methiodide]
IC50 (acetylcholinesterase [1]): 20 nM

C[N+]1([C@@H]2CCCC[C@@H]2c2cc(O)ccc2O)CCCC1 (relative stereo) [Example 16]
IC50 (acetylcholinesterase [1]): 10 nM

Nc1c2c(nc3ccccc13)CCCC2 [Tacrine, reference compound]
Potency, Mouse Miosis [3]: 0.21
Potency, Rat chromod. [4]: 0.38

C[N+]1([C@H]2CCCC[C@H]2c2cccc(O)c2)CCCC1 (stereo in doubt) [Example 11, cis-2-(3-hydroxyphenyl)-1-pyrrolidinocyclohexane methiodide]
IC50 (acetylcholinesterase [1]): 20 nM
Ki [5]: 7.3 nM
antiacetylcholinesterase potency versus neostigmine [5]: more potent than neostigmine
ED (maximum effect) [6]: 0.03 mg/kg
ED (maximum effect) [7]: 0.025 mg/kg
margin of safety when used in man [8]: wide margin of safety
selectivity ratio [8]: 15
LD50 [8]: 0.18 mg/kg
Potency, Mouse Miosis [3]: 9.6
in vivo potency versus neostigmine [3]: more potent than neostigmine
Potency, Rat chromod. [4]: 6.0
in vivo potency versus neostigmine [4]: more potent than neostigmine
muscarinic activity (muscarinic activity): less muscarinic activity

CN(C)C(=O)Oc1cccc([N+](C)(C)C)c1 [Neostigmine, reference compound]
Ki [5]: 30 nM
ED (maximum effect) [6]: 0.1 mg/kg
ED (maximum effect) [7]: 0.1 mg/kg
LD50 [8]: 0.2 mg/kg
recovery from tubocurarine block [2]: Prompt recovery
clinical intravenous dose to reverse the neuromuscular effects of tubocurarine [9]: 2.5 to 3.0 mg
reversal of enzyme inhibition (acetylcholinesterase [10]): relatively slow reversal

CC[N+](CC)(CCNC(=O)C(=O)NCC[N+](CC)(CC)Cc1ccccc1Cl)Cc1ccccc1Cl [Ambenonium, reference compound]
Potency, Mouse Miosis [3]: 0.06
Potency, Rat chromod. [4]: 0.03

C[N+]1([C@@H]2CCC[C@@H]2c2cccc(O)c2)CCCC1 (relative stereo) [Example 14]
IC50 (acetylcholinesterase [1]): 100 nM

Cc1ccc([C@H]2CCCC[C@H]2[N+]2(C)CCCC2)cc1 (relative stereo) [Example 7]
IC50 (acetylcholinesterase [1]): 1000 nM

C[N+]1([C@@H]2CCCC[C@H]2c2cccc(O)c2)CCCC1 (relative stereo) [trans-2-(3-hydroxyphenyl)-1-pyrrolidinocyclohexane methiodide, reference compound]
IC50 (acetylcholinesterase [1]): 100000 nM
activity of cis compound relative to trans compound (fold as active) (acetylcholinesterase [1]; Example 11 versus corresponding trans compound): ~5000 ×

CN(C)C(=O)Oc1ccc[n+](C)c1 [Pyridostigmine, reference compound]
Ki [5]: 4800 nM
reversal of enzyme inhibition (acetylcholinesterase [10]): relatively slow reversal
